In the test the test system is human vascular smooth muscle cells. Nature of the test: DNA synthesis inhibition activity of PGE1 derivatives to human vascular smooth muscle cells (3H-thymidine intake). In kind it is cell-based. The conditions noted are these: for Growth inhibition rate (percent to control): concentration of the added compound 1×10^−5 M, ethanol solution, 3H-thymidine intake after culturing 24 hours, compared with vehicle-treated control; for growth inhibition activity against human vascular smooth muscle cells: summary in words of Table 1, 1×10^−5 M. On the procedure:
Determination of DNA synthesis inhibition activity of PGE1 derivatives to human vascular smooth muscle cells
On a plate with 24 wells (manufactured by Corning Co.), 1×10^4 cells/well of quintic culture cells of vascular cells derived from normal human aorta (manufactured by Kurabo Co.) were inoculated and cultured for 2 days. The medium was exchanged from the growth medium (SG2: manufactured by Kurabo Co.) to the basal medium (SB2: manufactured by Kurabo Co.), and cultured for 24 hours, to which was added the growth medium (SG2) containing an ethanol solution of the test compound. 0.01 mci/well of ^3H-thymidine (manufactured by Daiichi Chemicals Co.) was added and, after culturing for 24 hours, the cultured supernatant was removed by suction, followed by washing with a phosphate buffer solution (PBS).
5% Trichloroacetic acid (TCA) was added and, after allowing to stand at 4° C. for 20 minutes, the mixture was washed once with TCA. The mixture was washed with PBS, and dissolved in 0.5 M aqueous potassium hydroxide solution. Intake of ^3H-thymidine was determined using 20 μl of the aqueous potassium hydroxide solution dissolving the cells which incorporated ^3H-thymidine in the nucleus by means of a liquid scintillation counter (manufactured by Hewlett-Packard Co.).
Note: Compounds 7, 70 and 92 in the table are those which were prepared in Examples. The test compounds were each used as an ethanol solution (the concentration of the added compound: 1×10^−5 M), and compared with control (vehicle-treated group).

Take `CCCC[C@@H](C)CC(O)C#CC1C(CCCCCCC(=O)O)C(=O)C[C@H]1SCCO` (stereo partly drawn) [Compound 7, (11R,17R)-11-deoxy-11-(2-hydroxyethylthio)-17,20-dimethyl-13,14-didehydro-PGE1]: the “Growth inhibition rate (percent to control)” value is given as 98.4% and the “growth inhibition activity against human vascular smooth muscle cells” value is reported as “high growth inhibition activity”.
Turning to `CCCC[C@@H](C)CC(O)C#CC1C(CCCCOCC(=O)OC)C(=O)C[C@H]1SCCO` (stereo partly drawn) [Compound 70, (11R,17R)-3-oxa-11-deoxy-11-(2-hydroxyethylthio)-17,20-dimethyl-13,14-didehydro-PGE1 Methyl Ester], the “Growth inhibition rate (percent to control)” value is listed as 95.6% and the “growth inhibition activity against human vascular smooth muscle cells” value is recorded as “high growth inhibition activity”.
For `COC(=O)COCCCCC1C(=O)C[C@@H](SCCO)C1C#CC(O)C[C@H](C)CCC=C(C)C` (stereo partly drawn) [Compound 92, (11R,17R)-3-oxa-11-deoxy-11-(2-hydroxyethylthio)-20-isopropylidene-17-methyl-13,14-didehydro-PGE1 Methyl Ester] the same measures were 99.3% and “high growth inhibition activity”.

Source of the values: US6455584B1, “Prostaglandin E1 derivatives” (Taisho Pharmaceutical Co., Ltd., priority 1999, dated 2002).
